The term IC50 denotes the concentration needed to halve the response being measured. The ΔTm is the change in melting temperature against a reference sample.

Structures are written as SMILES.

One assay relates to DU-145. Kind of assay: Cytotoxicity against human DU-145 cells assessed as reduction in cell viability measured after 72 hrs by SRB assay. Format: functional, cell-based. The note with it: DU-145, 72 h. (Sulforhodamine B stains cellular protein and so reports cell mass.)
The next assay relates to HCT-116. In words: Cytotoxicity against human HCT-116 cells assessed as reduction in cell viability measured after 72 hrs by SRB assay. Type of assay: functional, cell-based. Conditions: HCT-116, 72 h.
Another assay relates to MCF7. In words: Cytotoxicity against human MCF7 cells assessed as reduction in cell viability measured after 72 hrs by SRB assay. Type of assay: functional, cell-based. Conditions: MCF7, 72 h.
Another assay concerns MDA-MB-231. Kind of assay: Cytotoxicity against human MDA-MB-231 cells assessed as reduction in cell viability measured after 72 hrs by SRB assay. Conditions: MDA-MB-231, 72 h. Type of assay: functional, cell-based.
Assay [1] concerns PANC-1. In words: Cytotoxicity against human PANC-1 cells assessed as reduction in cell viability measured after 72 hrs by SRB assay. Conditions: PANC-1, 72 h. Format: functional, cell-based.
The test system of the next assay is MIA PaCa-2. In words: Cytotoxicity against human MIA PaCa-2 cells assessed as reduction in cell viability measured after 72 hrs by SRB assay. Format: functional, cell-based. The note with it: MIA PaCa-2, 72 h.
Assay [2] relates to BXPC-3. Kind of assay: Cytotoxicity against human BXPC-3 cells assessed as reduction in cell viability measured after 72 hrs by SRB assay. The note with it: BXPC-3, 72 h. Type of assay: functional, cell-based.
For assay [3], the system named is ASPC1. Kind of assay: Cytotoxicity against human ASPC1 cells assessed as reduction in cell viability measured after 72 hrs by SRB assay. Format: functional, cell-based. Conditions: ASPC1, 72 h.
The subject of a further assay is Capan-2. In words: Cytotoxicity against human Capan-2 cells assessed as reduction in cell viability measured after 72 hrs by SRB assay. The note with it: Capan-2, 72 h. Type of assay: functional, cell-based.
For assay [4], the system named is PANC-1. Kind of assay: Antitumour activity against human PANC-1 cells xenografted in Crl:Nu-Foxnl nu mouse assessed as inhibition of tumour growth at total effective dose of 16 mg/kg, iv measured on day 38. Format: functional. Conditions: PANC-1, iv, 912 h, time 38 day, read-out: TGI. A general note: Xenograft models place foreign cells or tissue in a host animal.

Assay [5] concerns PANC-1. Kind of assay: Antitumour activity against human PANC-1 cells xenografted in Crl:Nu-Foxnl nu mouse assessed as inhibition of tumour growth at total effective dose of 16 mg/kg, iv measured on day 60. Format: functional. Conditions: PANC-1, iv, 1440 h, time 60 day, read-out: TGI.
For assay [6], the system named is Quadruplex DNA. Kind of assay: Stabilization of 5'-FAM/3'-TAMRA labeled c-Myc promoter G4 quadruplex DNA FPu18 (unknown origin) assessed as change in melting temperature at 10 microM measured after 15 mins by FRET assay. Format: nucleic-acid assay.
Assay [7] relates to Quadruplex DNA. Kind of assay: Stabilization of 5'-FAM/3'-TAMRA labeled telomeric G4 quadruplex DNA F21T (unknown origin) assessed as change in melting temperature at 10 microM measured after 15 mins by FRET assay. Type of assay: nucleic-acid assay.
Assay [8] deals with Quadruplex DNA. Kind of assay: Stabilization of 5'-FAM/3'-TAMRA labeled K-Ras G4 quadruplex DNA (unknown origin) assessed as change in melting temperature at 10 microM measured after 15 mins by FRET assay. Type of assay: nucleic-acid assay.
Assay [9] can be described thus: Stabilization of ds 5'-FAM-d(TATAGCTATA-HEG-TATAGCTATA)-TAMRA-3' (unknown origin) assessed as change in melting temperature at 10 microM measured after 15 mins by FRET assay. The note with it: Homo sapiens.
The subject of assay [10] is ASPC1. In words: Antitumour activity against human ASPC1 cells xenografted in Crl:Nu-Foxnl nu mouse assessed as inhibition of tumour growth at total effective dose of 48 mg/kg, iv measured on day 36. Type of assay: functional. Conditions: 864 h, time 36 day, read-out: TGI.
Assay [11] deals with PANC-1. Kind of assay: Antitumour activity against human PANC-1 cells xenografted in Crl:Nu-Foxnl nu mouse assessed as inhibition of tumour growth at total effective dose of 16 mg/kg, iv measured on day 47. Type of assay: functional. Conditions: PANC-1, iv, 1128 h, time 47 day, read-out: TGI.
Assay [12] relates to PANC-1. In words: Antitumour activity against human PANC-1 cells xenografted in Crl:Nu-Foxnl nu mouse assessed as inhibition of tumour growth at total effective dose of 160 mg/kg, iv measured on day 50. The note with it: PANC-1, iv, 1200 h, time 50 day, read-out: TGI. Type of assay: functional.
Assay [13] deals with BXPC-3. Kind of assay: Antitumour activity against human BXPC-3 cells xenografted in Crl:Nu-Foxnl nu mouse assessed as inhibition of tumour growth at total effective dose of 40 mg/kg, iv measured on day 34. Type of assay: functional. The note with it: BXPC-3, iv, 816 h, time 34 day, read-out: TGI.
Assay [14] has as its system PANC-1. In words: Antitumour activity against human PANC-1 cells xenografted in Crl:Nu-Foxnl nu mouse assessed as inhibition of tumour growth at total effective dose of 8 mg/kg, iv measured on day 52. Type of assay: functional. The note with it: PANC-1, iv, 1248 h, time 52 day, read-out: TGI.

On to `O=c1c2ccccc2n2cnc3ccc(NCCNc4c5ccccc5nc5cccc([N+](=O)[O-])c45)c1c32`, for which the IC50 in the assay with DU-145 stood at 0.04 µM; with HCT-116, 0.102 µM; with MCF7, 0.082 µM; in the assay on MDA-MB-231, 0.027 µM; in the assay on PANC-1 [1] it was 0.037 µM; with MIA PaCa-2, 0.064 µM. Besides, the values for the half-maximal inhibitory concentration (IC50) in the assay on BXPC-3 [2], in the assay on ASPC1 [3] and in the assay on Capan-2 were 0.138 µM, 0.086 µM and 0.044 µM, respectively. For the same molecule, the inhibition in vivo at 16 mg/kg is 60% in the assay on PANC-1 [4] and 76% in the assay on PANC-1 [5]. In addition, the thermal shift (ΔTm) worked out at 19.3 °C in the assay with Quadruplex DNA [6], 31.6 °C with Quadruplex DNA [7], 19.5 °C in the assay on Quadruplex DNA [8] and 10.4 °C in assay [9].
Turning to `COc1ccc2c(c1)c(=O)c1c(NCCCN3CCN(CCC(N)c4ccc5nc6ccccc6cc5c4[N+](=O)[O-])CC3)ccc3ncn2c31` (centres undefined), the IC50 in the assay on DU-145 came to 0.021 µM; in the assay on HCT-116, 0.028 µM; with MDA-MB-231 it was 0.038 µM; with PANC-1 [1] it was 0.04 µM; in the assay on MIA PaCa-2 it was 0.036 µM; in the assay on BXPC-3 [2], 0.075 µM. In addition, the IC50 turned out to be 0.122 µM in the assay with ASPC1 [3] and 0.027 µM in the assay on Capan-2. The inhibition in vivo at 48 mg/kg in the assay on ASPC1 [10] was 32%. In the assay with PANC-1 [11], the inhibition in vivo at 16 mg/kg was found to be 80%. In addition, the inhibition in vivo at 160 mg/kg in the assay on PANC-1 [12] worked out at 64%. Also, the inhibition in vivo at 40 mg/kg with BXPC-3 [13] is 63%. The thermal shift (ΔTm) with Quadruplex DNA [6] was 32.8 °C; in the assay on Quadruplex DNA [7], 33.3 °C; with Quadruplex DNA [8], 28.3 °C; in assay [9], 4.6 °C.
Turning to `NC(CCN1CCN(CCCNc2ccc3nnn4c5ccccc5c(=O)c2c34)CC1)c1ccc2nc3ccccc3cc2c1[N+](=O)[O-]` (centres undefined), the IC50 in the assay on DU-145 came to 0.022 µM; with HCT-116, 0.022 µM; in the assay with MDA-MB-231, 0.152 µM; in the assay on PANC-1 [1], 0.138 µM; in the assay with MIA PaCa-2, 0.041 µM; with BXPC-3 [2] it was 0.12 µM. Moreover, the IC50 turned out to be 0.103 µM with ASPC1 [3] and 0.033 µM with Capan-2. Further, the inhibition in vivo at 8 mg/kg with PANC-1 [14] was 39%. For the same molecule, the shift in melting temperature (ΔTm) turned out to be 33.2 °C with Quadruplex DNA [6], 26.1 °C with Quadruplex DNA [7], 26.6 °C with Quadruplex DNA [8] and 3.9 °C in assay [9].

The values above are taken from ChEMBL document CHEMBL4765407, “Design, synthesis and high antitumor potential of new unsymmetrical bisacridine derivatives towards human solid tumors, specifically pancreatic cancers and their unique ability to stabilize DNA G-quadruplexes” (Eur J Med Chem, 2020).
